This is an account of results in patent US8569039B2, “Ethanol resistance Saccharomyces cerevisiae GP-01 by protoplast fusion, method for manufacturing thereof, method for manufacturing yeast containing high content of bio organic germanium by using Saccharomyces cerevisiae GP-01 and high water soluble sodium metagermanate as a germanium source” (Geranti Pharm Ltd., priority 2008, dated 2013).

Read-outs that look alike come from different tables or passages of the source.

The subject of series [1] is yeast GP-01 (KCTC 11399BP). On the procedure: (§1) In order to examine the ethanol resistance of the obtained yeast GP-01, the ethanol, which is the inhibitor of the growth, was added by the concentrations and the status of the growth of the yeast was checked.
Series [2] deals with Saccharomyces Cerevisiae (KCTC 7904). Particulars: KCTC7904. The method, then:
as §1

Series [3] concerns yeast GP-01 (KCTC 11399BP). Briefly: Bio-germanium content in yeast by mixing ratio of yeast and Ge solution. Type of series: cell-based, Saccharomyces Cerevisiae. The note with it: 20 hours, pH 10, 40° C. On the procedure:
In order to determine the content of bio-germanium in the yeast GP-01, 1 g of the cultivated and dried yeast GP-01 was added in 30 ml of nitric acid. The obtained sample was heated to be decomposed. After adjusting pH value to 6, 1 ml of the sample was mixed with 1 ml of phenylfluorone and 1 ml of cyclo nucleic acid. The obtained sample was stationary for 30 hours at 30° C. and then determined the content of germanium in the yeast GP-01 by using UV spectrophotometer at 525 nm.
The broth containing the ethanol-resistant yeast GP-01 as prepared in the Example 1 was centrifuged to collect the yeast. […] The obtained solutions were cultivated for 20 hours at pH 10 and temperature 40° C.
Also, as a control, the same procedure described in Example 3 was performed, except that a solution of (inorganic) germanium dioxide (GeO2) was used instead of sodium metagermanate (Na2GeO3).
The contents of germanium in the yeast GP-01 (KCTC 11399BP) was measured by the same method as Example 2.

For series [4], the system named is Saccharomyces Cerevisiae (KCTC 7904). Briefly: Bio-germanium content inoculated into the yeast by content of germanium in the solution. Particulars: KCTC7904; for Bio-germanium content inoculated into the yeast: 20 hours, pH 10, 40° C. Type of series: cell-based.
Series [5] relates to yeast GP-01 (KCTC11399BP). The description is as above. The note with it: for Bio-germanium content inoculated into the yeast: 20 hours, pH 10, 40° C. It counts as cell-based, Saccharomyces Cerevisiae. The method, then: The broth medium containing the mutated Saccharomyces Cerevisiae, yeast GP-01 (KCTC11399BP), was centrifuged to collect the palletized yeast. The collected pelletized yeast was added in each of the solutions of sodium metagermanate (Na2GeO3) with different concentrations of germanium. The prepared solutions were cultivated for 20 hours at pH 10 and temperature 40° C.
In order to determine the content of bio-germanium in the yeast GP-01, 1 g of the cultivated and dried yeast GP-01 was added in 30 ml of nitric acid. The obtained sample was heated to be decomposed. After adjusting pH value to 6, 1 ml of the sample was mixed with 1 ml of phenylfluorone and 1 ml of cyclo nucleic acid. The obtained sample was stationary for 30 hours at 30° C. and then determined the content of germanium in the yeast GP-01 by using UV spectrophotometer at 525 nm. […]

For series [6] the following is noted: 25° C.; cited from earlier work.
The mark [7] stands for this setting: germanium in the solution 1,000 ppm.
The mark [8] stands for this setting: germanium in the solution 2,000 ppm.
Where [9] appears, read: germanium in the solution 3,000 ppm.
Where [10] appears, read: germanium in the solution 4,000 ppm.
Where [11] appears, read: germanium in the solution 5,000 ppm.

On to `CCO` [ethanol], for which the “Growth status OD(660 nm, 1/20)” value stood at 0.15 in series [1] (GP-01 1st investigation, ethanol 6.0 % v/v); 0.14 in series [1] (GP-01 1st investigation, ethanol 8.0 % v/v); 0.16 in series [1] (GP-01 1st investigation, ethanol 10.0 % v/v); 0.12 in series [1] (GP-01 1st investigation, ethanol 15.0 % v/v); 0.14 in series [1] (GP-01 2nd investigation, ethanol 6.0 % v/v); 0.20 in series [1] (GP-01 2nd investigation, ethanol 8.0 % v/v). Further, the “Growth status OD(660 nm, 1/20)” value was determined as 0.19 in series [1] (GP-01 2nd investigation, ethanol 10.0 % v/v); 0.08 in series [1] (GP-01 2nd investigation, ethanol 15.0 % v/v); 0.20 in series [1] (GP-01 3rd investigation, ethanol 6.0 % v/v); 0.23 in series [1] (GP-01 3rd investigation, ethanol 8.0 % v/v); 0.24 in series [1] (GP-01 3rd investigation, ethanol 10.0 % v/v); 0.15 in series [1] (GP-01 3rd investigation, ethanol 15.0 % v/v). The results for the “Growth status OD(660 nm, 1/20)” value in series [2] (ethanol 6.0 % v/v), in series [2] (ethanol 8.0 % v/v) and in series [2] (ethanol 10.0 % v/v) were 0.07, 0.06 and 0.05, respectively.
Regarding “germanium dioxide [GeO2 solution, reference compound]”, the “Bio-germanium content in yeast GP-01” value in series [3] (mixing ratio yeast GP-01:Ge solution 1:0.2) is 1,920 ppm; in series [3] (mixing ratio yeast GP-01:Ge solution 1:0.5) it was 5,670 ppm; in series [3] (mixing ratio yeast GP-01:Ge solution 1:1), 4,780 ppm; in series [3] (mixing ratio yeast GP-01:Ge solution 1:2), 2,500 ppm; in series [3] (mixing ratio yeast GP-01:Ge solution 1:3) it was 1,700 ppm. For the same compound, the “Yield (%) of germanium inoculated” value in series [4] (setting [7]) was found to be 78%; in series [4] (setting [8]), 44%; in series [4] (setting [9]), 33%; in series [4] (setting [10]), 36%; in series [4] (setting [11]) it was 30%; in series [5] (setting [7]), 87%. Moreover, the “Yield (%) of germanium inoculated” value in series [5] (setting [8]) is listed as 89%; in series [5] (setting [9]) it was 89%; in series [5] (setting [10]), 96%; in series [5] (setting [11]), 95%. Moreover, the “Bio-germanium content inoculated into the yeast” value in series [4] (setting [7]) is 780 ppm; in series [4] (setting [8]), 870 ppm; in series [4] (setting [9]) it was 980 ppm; in series [4] (setting [10]), 1,430 ppm; in series [4] (setting [11]), 1,500 ppm; in series [5] (setting [7]), 870 ppm. The “Bio-germanium content inoculated into the yeast” value was 1,786 ppm in series [5] (setting [8]), 2,670 ppm in series [5] (setting [9]), 3,850 ppm in series [5] (setting [10]) and 4,753 ppm in series [5] (setting [11]). In addition, the solubility in series [6] is 5200 µg/mL.

The term solubility denotes how much of the substance goes into solution per volume.
